In patent US9695155B2, “Herbicidal substituted pyrimidinyloxy benzene compounds” (E. I. DU PONT DE NEMOURS AND COMPANY, priority 2013, dated 2017):

Assays:
corn [1] = test: Test C postemergence; type: in vivo, Zea mays
In short: (§1)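 Seeds were sown in loam–sand blend and sprayed preemergence, while plants at 1- to 4-leaf stage (2–18 cm) in peat-based medium received postemergence sprays; test chemicals were formulated in a non-phytotoxic solvent with surfactant. After 13–15 days in a greenhouse, injury was rated visually against controls, 0 (no effect) to 100 (complete control).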

corn [2] = test: Test A postemergence; type: in vivo, Zea mays; settings: 0 to 100 scale where 0 is no effect and 100 is complete control
In short: (§2)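 Visual injury scored 0–100 (100 = complete control) against untreated controls about 10 days after treatment in a greenhouse. Test chemicals, formulated with surfactant in non-phytotoxic solvent, were sprayed on soil preemergence or on 2-10 cm, one- to two-leaf plants postemergence.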

velvetleaf [3] = test: Test A preemergence; type: in vivo, Abutilon theophrasti
In short: as §2

soybean = test: Test C postemergence; type: in vivo, Glycine max
In short: as §1

pigweed [4] = test: Test A preemergence; type: in vivo, Amaranthus retroflexus
In short: as §2

wild oat = test: Test C postemergence; type: in vivo, Avena fatua
In short: as §1

large (Lg) crabgrass [5] = test: Test A postemergence; type: in vivo, Digitaria sanguinalis; settings: 0 to 100 scale where 0 is no effect and 100 is complete control
In short: as §2

kochia = test: Test C postemergence; type: in vivo, Kochia scoparia
In short: as §1

Italian ryegrass = test: Test C postemergence; type: in vivo, Lolium multiflorum
In short: as §1

barnyardgrass = test: Test C postemergence; type: in vivo, Echinochloa crus-galli
In short: as §1

johnsongrass = test: Test C postemergence; type: in vivo, Sorghum halepense
In short: as §1

pigweed [6] = test: Test C postemergence; type: in vivo, Amaranthus retroflexus
In short: as §1

large (Lg) crabgrass [7] = test: Test A preemergence; type: in vivo, Digitaria sanguinalis
In short: as §2

pigweed [8] = test: Test A postemergence; type: in vivo, Amaranthus retroflexus; settings: 0 to 100 scale where 0 is no effect and 100 is complete control
In short: as §2

giant foxtail = test: Test C postemergence; type: in vivo, Setaria faberii
In short: as §1

velvetleaf [9] = test: Test A postemergence; type: in vivo, Abutilon theophrasti; settings: 0 to 100 scale where 0 is no effect and 100 is complete control
In short: as §2

waterhemp = test: Test C postemergence; type: in vivo, Amaranthus rudis
In short: as §1

morningglory = test: Test A postemergence; type: in vivo, Ipomoea spp.; settings: 0 to 100 scale where 0 is no effect and 100 is complete control
In short: as §2

[10] = 16 g ai/ha, postemergence, 0 is no effect, 100 is complete control
[11] = 31 g ai/ha, postemergence, visual rating, scale 0 to 100 (0 no effect, 100 complete control), 13 to 15 days
[12] = 125 g ai/ha, postemergence, visual rating, scale 0 to 100 (0 no effect, 100 complete control)
[13] = Postemergence, 62 g ai/ha, scale 0 to 100 (0 no effect, 100 complete control), 13 to 15 days
[14] = 500 g ai/ha, 0 to 100 scale where 0 is no effect and 100 is complete control

FC(F)c1cnn(-c2c(Br)cccc2Oc2ncc(Cl)cn2)c1 [Compound 232]
55: Soybean plant response rating (soybean; [11])
98: Plant response rating, Kochia (kochia; [12])
80: Velvetleaf plant response rating (velvetleaf [9]; 125 g ai/ha) | Morningglory plant response rating (morningglory; 125 g ai/ha)
30: Corn plant response rating (corn [2]; 125 g ai/ha) | Plant response rating (0 to 100), Soybean (soybean; [10])
100: Velvetleaf plant response rating (velvetleaf [3]; [14]) | Pigweed plant response rating (0 to 100 scale) (pigweed [4]; 125 g ai/ha) | Pigweed plant response rating (pigweed [4]; [14]) | Crabgrass, Large plant response rating (large (Lg) crabgrass [7]; [14]) | Pigweed plant response rating (pigweed [8]; 125 g ai/ha) | Plant response rating, Pigweed (pigweed [8]; 500 g ai/ha) | Plant response rating, Velvetleaf (velvetleaf [9]; 500 g ai/ha)
90: Plant response rating, Corn (corn [2]; 500 g ai/ha) | Plant response rating, Crabgrass, Large (large (Lg) crabgrass [5]; 500 g ai/ha) | Plant response rating, Kochia (kochia; [13]) | Crabgrass, Large plant response rating (0 to 100 scale) (large (Lg) crabgrass [7]; 125 g ai/ha) | Plant response rating, Morningglory (morningglory; 500 g ai/ha)
5: Plant response rating (0 to 100), Corn (corn [1]; [10]) | Plant response rating, Oat, Wild (wild oat; [13]) | Plant response rating, Ryegrass, Italian (Italian ryegrass; [13]) | Barnyardgrass plant response rating (barnyardgrass; [11]) | Plant response rating, Johnsongrass (johnsongrass; [12]) | Plant response rating, Johnsongrass (johnsongrass; [13]) | Plant response rating (0 to 100), Foxtail, Giant (giant foxtail; [10]) | Foxtail, Giant plant response rating (giant foxtail; [11]) | Plant response rating, Foxtail, Giant (giant foxtail; [13])
15: Plant response rating, Corn (corn [1]; [12]) | Plant response rating, Foxtail, Giant (giant foxtail; [12])
0: Plant response rating (0 to 100), Oat, Wild (wild oat; [10]) | Oat, Wild plant response rating (wild oat; [11]) | Plant response rating (0 to 100), Ryegrass, Italian (Italian ryegrass; [10]) | Ryegrass, Italian plant response rating (Italian ryegrass; [11]) | Plant response rating (0 to 100), Johnsongrass (johnsongrass; [10]) | Johnsongrass plant response rating (johnsongrass; [11])
10: Corn plant response rating (corn [1]; [11]) | Plant response rating, Corn (corn [1]; [13]) | Plant response rating, Ryegrass, Italian (Italian ryegrass; [12]) | Plant response rating (0 to 100), Barnyardgrass (barnyardgrass; [10]) | Plant response rating, Barnyardgrass (barnyardgrass; Postemergence, 62 g ai/ha, scale 0 to 100 (0 no effect, 100 complete control))
85: Plant response rating (0 to 100), Kochia (kochia; [10]) | Kochia plant response rating (kochia; [11]) | Plant response rating, Pigweed (pigweed [6]; [12]) | Plant response rating, Waterhemp (waterhemp; [12])
60: Crabgrass, Large plant response rating (large (Lg) crabgrass [5]; 125 g ai/ha) | Plant response rating (0 to 100), Pigweed (pigweed [6]; [10]) | Plant response rating, Pigweed (pigweed [6]; [13])
20: Velvetleaf plant response rating (0 to 100 scale) (velvetleaf [3]; 125 g ai/ha) | Plant response rating, Oat, Wild (wild oat; [12]) | Plant response rating, Barnyardgrass (barnyardgrass; [12])
70: Plant response rating, Soybean (soybean; [13]) | Pigweed plant response rating (pigweed [6]; [11]) | Plant response rating, Waterhemp (waterhemp; [13])
65: Plant response rating (0 to 100), Waterhemp (waterhemp; [10]) | Waterhemp plant response rating (waterhemp; [11])
75: Plant response rating, Soybean (soybean; [12])
